According to patent publication US20240238278A1, “Pharmaceutical Composition for Preventing or Treating Fibrosis” (Daewoong Pharmaceutical Co., Ltd., priority 2021, published 2024):

Assays:
[1] = tested on: DHLF cell line; assay: Non-clinical anti-fibrotic efficacy: Western blotting of TGF-β treated DHLF cell line; format: cell-based; conditions: TGF-β 10 ng/ml, 72 hours
Description: 10 mM of the first component was diluted with DMSO so as to be to 100 uM. It was diluted with DMSO so as to be 10, 3, 1 uM, and 10 mM of the second component (NIN) was diluted with DMSO to be 50 nM.
A DHLF cell line (FGM™-2 Bullet Kit™, 10% FBS), which is a lung fibrosis cell line, was prepared, and cultured in a T75 Easy Flask Filter at 37° C. and 5% CO2 using FBM medium. The cultured DHLF cell line was treated with 10 ng/mL of TGF-β and the test drug alone or in combination, cultured for 72 hours, then the media was removed, the protein was extracted, and the extracted protein was quantified using the BCA Protein Assay Kit. Based on the quantitative value of each extracted protein, 10 to 20 ug of protein was subjected to Western blotting. The protein after running was transferred to the PVDF membrane. After TBS-T washing 3 times, each PVDF membrane was treated with 1 mL of ECL solution, and then the protein expression level was measured using an AI680 imager. Each band value was calculated as a numerical value normalized compared to β-actin through ImageJ, and is shown in Tables 2 and 3 and FIGS. 1 and 2 below.

[2] = tested on: animal model of pulmonary fibrosis; assay: Inflammation cell count analysis in BALF; format: in vivo; conditions: BLM mice, PO, day 21; first component 10 mg/kg, NIN 60 mg/kg, PID 200 mg/kg
Description: (§1) 70-100 uL of BLM solution (bleomycin 1-3 mg/kg) was administered to a lung of the acclimatized experimental animals using a catheter for 5 days or more. In accordance with the purpose of the test, the test drug was administered 7 days after BLM administration, and the drug was orally administered for 2 weeks until the 21st day of BLM administration.
At the sacrifice on the 21st day of administration, BALF (Bronchoalveolar lavage fluid) cells obtained through airway washing of mice were diluted with 1.05×PBS and attached to a slide, and then the slide was immersed and removed for 30 seconds in the order of 1, 2, 3 diff quick stain solution, and stained. It was counted based on 500 cells. Macrophages are the largest in size, mononuclear, and stained blue. Neutrophils and eosinophils form polynuclear cells, but eosinophils are stained red with eosin and distinguished from neutrophils. Lymphocytes have very less cytoplasm and are small in size as monocytes.

[3] = Measurement of change in body weight in BLM animal model; format: in vivo, mouse; design: unit not given here; conditions: BLM mice, first component 10 mg/kg, NIN 60 mg/kg, PID 200 mg/kg
Description: as §1
The body weight was measured once every 0, 7, 14, 17, and 21 days for 3 weeks, and from the 14th day when the drug effect began to be noticeable after the administration, it was measured every 3 days.

[4] = tested on: animal model of pulmonary fibrosis; assay: Measurement of total collagen content in lung (INSOLUBLE Collagen Assay); format: in vivo, mouse; conditions: BLM mice, PO, day 21, n 9; first component 10 mg/kg, NIN 60 mg/kg, PID 200 mg/kg
Description: as §1
In this experimental example, analysis was performed using INSOLUBLE Collagen Assay (Biocolor, S2000). After sacrifice on the 21st day, the cryopreserved lung tissue was pulverized by adding 100 uL of Fragmentation Reagent, and then, 100 uL of 37% HCl was added and incubated at 65° C. for 3 hours. The contents of the tube were shaken at 30 minute intervals to aid tissue disintegration. After centrifugation, the concentration was adjusted to 100 μL and collagen staining was proceeded to prepare a sample. Absorbance was measured at 560 nm.

[5] = tested on: animal model of pulmonary fibrosis; assay: Histopathology (Ashcroft score) analysis, Fibrotic Index; format: in vivo, mouse; conditions: BLM mice, PO, day 21; first component 10 mg/kg, PID 200 mg/kg
Description: as §1
The degree of fibrosis and inflammation of the lung tissue were visually observed through a microscope, and the degree of fibrosis of lung tissue was measured with a Fibrotic Index according to normalized criteria. The higher the Fibrotic Index value, the more severe the degree and symptom of fibrosis. It is interpreted that as the value is lower, the symptom is alleviated.
On the 21st day, lung tissue was separated and stained using H&E and MT stain, and observed under a microscope at 200× magnification. The observed results were scored by Ashcroft (Hubner et al., 2008). The fibrotic index was calculated by dividing the sum of the adjusted Ashcroft field scores by the number of fields tested, and shown in Table 7 and FIG. 4.

[6] = Pharmacokinetic test after single oral administration in ICR mice; format: in vivo; conditions: mouse, blood, ICR mice (male), 10 mg/kg
Description: The pharmacokinetic parameters were calculated using Excel® and WinNonlin6.1 software for the blood drug concentration according to the change over time obtained through LC-MS/MS, and changes in the blood concentration of the first component are shown in Table 11 and FIG. 9.

[7] = tested on: animal model of pulmonary fibrosis; assay: Lung function evaluation (SpO2) in BLM animal model; format: in vivo, mouse; conditions: BLM mice, PO, day 21, first component 10 mg/kg, NIN 60 mg/kg, PID 200 mg/kg; for SpO2 Differance / SpO2 Rate of increase: vs vehicle
Description: as §1
This lung function evaluation is the most direct and important evaluation index that has the greatest influence on the symptoms and quality of life of patients with pulmonary fibrosis, and is an experiment that can most directly show the effect of improving lung function in an animal model of pulmonary fibrosis by measuring the oxygen concentration in the body.
On the 21st day, it was measured with a SpO2 measuring device (Berry, Veterinary Pulse Oximeter) via the abdominal side of the mouse, and the results are shown in Table 5 and FIG. 3.

[8] = Table 2, first component 10 ug/ml alone
[9] = Table 3, first component 5 ug/ml alone

Structure (SMILES)	Eosinophil count in BALF [2]	Lymphocyte count in BALF [2]	Macrophage count in BALF [2]	Neutrophil count in BALF [2]	total cell in BALF [2]	change in body weight ([3]; Day 0)	change in body weight ([3]; Day 7)	change in body weight ([3]; Day 14)	change in body weight ([3]; Day 17)	change in body weight ([3]; Day 21)	total collagen content in lung (hydroxyproline value, ratio compared with normal group) [4]	Fibrotic Index (±SEM) [5]	SpO2 Average value [7]	SpO2 Differance [7]	SpO2 Rate of increase [7]	other results
O[C@H]1CCCN[C@@H]1CCCn1cnc2c(Cl)c(Cl)ccc21 [First component]	0	7	60	17	84 10^4	0.0	−10.1	−22.7	−22.2	−20.5	228	4.6 (±0.6)	79.1	3.1	4%	COL1A1 Relative value (based on control) [1, 8]: 3.26; SMA-α Relative value (based on control) [1, 8]: 1.66; COL1A1 Relative value (based on control) [1, 9]: 3.84; SMA-α Relative value (based on control) [1, 9]: 3.53; AUC(0-inf) [6]: 1190 ng·h/mL; AUC(0-t) [6]: 1070 ± 210 ng·h/mL; Cmax [6]: 263 ± 32 ng/mL; Tmax [6]: 2.67 ± 1.15 h; half-life [6]: 2.5 ± 2.48 h
Cc1ccc(=O)n(-c2ccccc2)c1 [Second component (PID), Pirfenidone]	0	6	55	12	74 10^4	0.0	−10.2	−22.7	−18.1	−16.5	156	3.7 (±0.7)	81.7	5.7	7%	SpO2 Rate of increase ([7]; listed as PID): 7%
